From ChEMBL document CHEMBL1152855, “Regioselective synthesis of dispiro[1H-indene-2,3'-pyrrolidine-2',3''-[3H]indole]-1,2''(1''H)-diones of potential anti-tumor properties” (2009)

Assays:
Type in all cases: functional
NCI-H23 = experiment: Growth inhibition of human NCI-H23 cells at 10 uM after 48 hrs by sulforhodamine B assay; conditions: NCI-H23, 48 h, values are per cent of control
NCI-H522 = experiment: Growth inhibition of human NCI-H522 cells at 10 uM after 48 hrs by sulforhodamine B assay; conditions: NCI-H522, 48 h, values are per cent of control
HCT-116 = experiment: Growth inhibition of human HCT116 cells at 10 uM after 48 hrs by sulforhodamine B assay; conditions: HCT-116, 48 h, values are per cent of control
HCT-15 = experiment: Growth inhibition of human HCT15 cells at 10 uM after 48 hrs by sulforhodamine B assay; conditions: HCT-15, 48 h, values are per cent of control
BT-549 = experiment: Growth inhibition of human BT549 cells at 10 uM after 48 hrs by sulforhodamine B assay; conditions: BT-549, 48 h, values are per cent of control
MCF7 = experiment: Growth inhibition of human MCF7 cells at 10 uM after 48 hrs by sulforhodamine B assay; conditions: MCF7, 48 h, values are per cent of control
NCI/ADR-RES = experiment: Growth inhibition of human NCI/ADR-RES cells at 10 uM after 48 hrs by sulforhodamine B assay; conditions: values are per cent of control
OVCAR-3 = experiment: Growth inhibition of human OVCAR-3 cells at 10 uM after 48 hrs by sulforhodamine B assay; conditions: OVCAR-3, 48 h, values are per cent of control
OVCAR-8 = experiment: Growth inhibition of human OVCAR8 cells at 10 uM after 48 hrs by sulforhodamine B assay; conditions: OVCAR-8, 48 h, read-out: GI
HL-60(TB) = experiment: Growth inhibition of human HL-60(TB) cells at 10 uM after 48 hrs by sulforhodamine B assay; conditions: HL-60, 48 h, read-out: GI
SR = experiment: Growth inhibition of human SR cells at 10 uM after 48 hrs by sulforhodamine B assay; conditions: values are per cent of control
ACHN = experiment: Growth inhibition of human ACHN cells at 10 uM after 48 hrs by sulforhodamine B assay; conditions: values are per cent of control
CAKI-1 = experiment: Growth inhibition of human Caki1 cells at 10 uM after 48 hrs by sulforhodamine B assay; conditions: CAKI-1, 48 h, values are per cent of control
Rattus norvegicus = experiment: Antiinflammatory activity against carrageenan-induced paw edema in Wister albino rat assessed as inhibition of edema at 50 mg/kg, ip administered 1 hr prior to carrageenan challenge measured after 4 hrs relative to indomethacin; conditions: route intraperitoneal
SK-MEL-2 = experiment: Growth inhibition of human SK-MEL-2 cells at 10 uM after 48 hrs by sulforhodamine B assay; conditions: SK-MEL-2, 48 h, read-out: GI
SK-MEL-28 = experiment: Growth inhibition of human SK-MEL-28 cells at 10 uM after 48 hrs by sulforhodamine B assay; conditions: SK-MEL-28, 48 h, values are per cent of control
SK-MEL-5 = experiment: Growth inhibition of human SK-MEL-5 cells at 10 uM after 48 hrs by sulforhodamine B assay; conditions: SK-MEL-5, 48 h, values are per cent of control
UACC-62 = experiment: Growth inhibition of human UACC62 cells at 10 uM after 48 hrs by sulforhodamine B assay; conditions: UACC-62, 48 h, values are per cent of control
DU-145 = experiment: Growth inhibition of human DU145 cells at 10 uM after 48 hrs by sulforhodamine B assay; conditions: DU-145, 48 h, values are per cent of control
PC-3 = experiment: Growth inhibition of human PC3 cells at 10 uM after 48 hrs by sulforhodamine B assay; conditions: PC-3, 48 h, values are per cent of control
SF-268 = experiment: Growth inhibition of human SF268 cells at 10 uM after 48 hrs by sulforhodamine B assay; conditions: SF-268, 48 h, values are per cent of control
SNB-19 = experiment: Growth inhibition of human SNB19 cells at 10 uM after 48 hrs by sulforhodamine B assay; conditions: SNB-19, 48 h, values are per cent of control
SNB-75 = experiment: Growth inhibition of human SNB75 cells at 10 uM after 48 hrs by sulforhodamine B assay; conditions: SNB-75, 48 h, values are per cent of control

Row | Structure (SMILES) | growth, % of control at 10 µM (NCI-H23) [%] | growth, % of control at 10 µM (NCI-H522) [%] | growth, % of control at 10 µM (HCT-116) [%] | growth, % of control at 10 µM (HCT-15) [%] | growth, % of control at 10 µM (BT-549) [%] | growth, % of control at 10 µM (MCF7) [%] | growth, % of control at 10 µM (NCI/ADR-RES) [%] | growth, % of control at 10 µM (OVCAR-3) [%] | inhibition of growth at 10 µM (OVCAR-8) [%] | growth, % of control at 10 µM (SR) [%] | growth, % of control at 10 µM (ACHN) [%] | growth, % of control at 10 µM (CAKI-1) [%] | activity relative to indomethacin (Rattus norvegicus) [%] | inhibition of growth at 10 µM (SK-MEL-2) [%] | growth, % of control at 10 µM (SK-MEL-28) [%] | growth, % of control at 10 µM (SK-MEL-5) [%] | growth, % of control at 10 µM (UACC-62) [%] | growth, % of control at 10 µM (DU-145) [%] | growth, % of control at 10 µM (PC-3) [%] | growth, % of control at 10 µM (SF-268) [%] | also measured
1 | [3H]N1C(=O)[C@@]2(c3ccccc31)N(C)C[C@@H](c1ccc(OC)cc1)[C@@]21Cc2ccccc2C1=O | 89.3 | 91 | 92.6 | 107 | 118 | 120 | 89.4 | 98.5 | 55.3 | 140 | 98.1 | 85.7 | 45 | 8.7 | 108 | 101 | 71.8 | 110 | 66 | 113 | growth, % of control at 10 µM (HL-60(TB)): 72.8%; growth, % of control at 10 µM (SNB-19): 92.2%; growth, % of control at 10 µM (SNB-75): 102%
2 | [3H]C([3H])([3H])N1C(=O)[C@@]2(c3ccccc31)N(C)C[C@@H](c1ccc(OC)cc1)[C@@]21Cc2ccccc2C1=O | 84.5 | 87 | 59.8 | 89.1 | 101 | 100 | 96 | 92.5 | 83.8 | 125 | 82.8 | 91.1 | 8 | -6.92 | 101 | 88.1 | 63.1 | 128 | 58.4 | 108 | growth, % of control at 10 µM (HL-60(TB)): 170%; growth, % of control at 10 µM (SNB-19): 94.1%; growth, % of control at 10 µM (SNB-75): 79%
3 | [3H]N1C(=O)[C@@]2(c3ccccc31)N(C)C[C@@H](c1cccs1)[C@@]21Cc2ccccc2C1=O | 92 | 92.3 | 92.2 | 103 | 119 | 109 | 97.4 | 95.6 | 60.2 | 60.3 | 97.9 | 106 | 41 | 6.58 | 117 | 114 | 82 | 92 | 73 | 93.6 | growth, % of control at 10 µM (HL-60(TB)): 89.7%; growth, % of control at 10 µM (SNB-19): 99.8%; growth, % of control at 10 µM (SNB-75): 81%
4 | [3H]C([3H])([3H])N1C(=O)[C@@]2(c3ccccc31)N(C)C[C@@H](c1cccs1)[C@@]21Cc2ccccc2C1=O | 92 | 94.9 | 108 | 108 | 131 | 103 | 98.5 | 100 | 64 | 72.5 | 98.4 | 106 | 27 | -5.11 | 105 | 112 | 75.3 | 121 | 70.3 | 101 | growth, % of control at 10 µM (HL-60(TB)): 70%; growth, % of control at 10 µM (SNB-19): 96.2%; growth, % of control at 10 µM (SNB-75): 79%
5 | [3H]N1C(=O)[C@@]2(c3ccccc31)N(C)C[C@@H](c1ccc(Cl)cc1)[C@@]21Cc2ccccc2C1=O | 75 | 73.9 | 54.6 | 82.5 | 121 | 109 | 64 | 78.6 | 69.2 | 167 | 80.5 | 80 | 32 | -6.14 | 112 | 112 | 45.8 | 103 | 36.5 | 90 | growth, % of control at 10 µM (HL-60(TB)): 76.7%; growth, % of control at 10 µM (SNB-19): 89.9%; growth, % of control at 10 µM (SNB-75): 61.1%
6 | [3H]C([3H])([3H])N1C(=O)[C@@]2(c3ccccc31)N(C)C[C@@H](c1ccc(Cl)cc1)[C@@]21Cc2ccccc2C1=O | 58 | 77.3 | 24.3 | 68.3 | 111 | 91.8 | 79.4 | 69.3 | 60.9 | 51.4 | 82.8 | 71.8 | 18 | -11.1 | 90.6 | 87 | 48.4 | 91.1 | 38.3 | 81.1 | growth, % of control at 10 µM (SNB-19): 89.9%; growth, % of control at 10 µM (SNB-75): 75.3%
